Measurements from patent US8961873B2, “Antinfection protecting healthcare workers to prevent spreading of communicable and nosocomial infections” (priority 2011, dated 2015).

Conditions: the rest remains in inactive suspension

amount going into solution in water: 16 ppm
Structure (SMILES): [Ca+2].[F-].[F-] [CaF2, Calcium-Fluoride]
